Test results from publication PMC5689723, “Targeting aggressive prostate cancer-associated CD44v6 using phage display selected peptides” (Oncotarget, 2017).
Read-outs that look alike come from different tables or passages of the source. Ends that are not written are not given here. Peptide text beside a SMILES is read from it. * marks the point of attachment. Biotin = O=C1N[C@H]2[C@H](CS[C@H]2CCCCC(=O)*)N1

Tests used:
PC3M cells = assay: MTT assay, PC3M cells; assay type: cell-based; conditions: Homo sapiens, PC-3M, 48 h, 5000 cells per well, triplicate, 562 nm, P< 0.05 vs v6A3, read-out: DOX IC50 of PC3M
Description: To determine the dose response of drug-resistant PC3M1G4 cell lines, PC3M and v6A3 cells were seeded in triplicate in 96-well plates at 5000 cells per well and incubated for 24 h. A range of concentrations (1000, 100, 10, 1, 0.1, 0.01, 0.001, 0.0001 nM) of DOX in fresh medium were added to the cells. Control cells were treated with appropriate volumes of fresh medium. After 48 h, 20 μl of MTT (3-(4,5-dimethylthiazol-2-yl)-2,5-diphenyltetrazolium bromide) (5 mg/ ml) (Sigma-Aldrich, St. Louis, MO) was added to each well, followed by incubation at 37°C in 5% CO2 for 4 h. Subsequently, 100 μl of DMSO (Sigma-Aldrich, St. Louis, MO) was added and the plate was shaken for 20 min at RT to dissolve the formazan crystals. The optical density (absorbance units) was read at a wavelength of 562 nm on a μQuant Universal Microplate Spectrophotometer (Bio-Tek Instruments, Winooski, VT). The growth inhibition curve was generated using GraphPad Prism 6.0 software (GraphPad Software Inc., San Diego, CA). Absolute IC50 values were calculated using the log inhibitor vs. response curves for nonlinear regression.

SORE6-GFP^- cells = tested on: SORE6-GFP^- cells; set-up: method as in PMID 22439924; conditions: treatment with doxorubicin; proportion of SORE6-GFP^+ cells increased dramatically; ref [41]; cited from earlier work
recombinant CD44v6-Fc = molecular target: T1, recombinant CD44v6-Fc (Homo sapiens, UniProt P16070, DEL223-384/DEL429-575); assay: Peptide-Protein ELISA, recombinant CD44v6-Fc; assay type: binding; conditions: 2 h at RT, 490 nm; for Kd: biotinylated peptide, CD44v6-Fc coated at 1 μg/ml, pH 9.6, 0.5% BSA in PBST, HRP-streptavidin, nonlinear regression, GraphPad Prism 6.0; for binding to recombinant CD44v6-Fc (in words): biotinylated synthetic peptides, various concentrations, Figure 2C, 2D
T1 construct: the ECD of CD44 and CD44v6 protein were expressed as Fc-tagged proteins; made in house; host or cells: CHO-K1 cells, purified by protein A chromatography
T1 sequence (P16070 with tags, fused parts or gaps isoform P16070-7 DEL223-384/DEL429-575 limits assumed): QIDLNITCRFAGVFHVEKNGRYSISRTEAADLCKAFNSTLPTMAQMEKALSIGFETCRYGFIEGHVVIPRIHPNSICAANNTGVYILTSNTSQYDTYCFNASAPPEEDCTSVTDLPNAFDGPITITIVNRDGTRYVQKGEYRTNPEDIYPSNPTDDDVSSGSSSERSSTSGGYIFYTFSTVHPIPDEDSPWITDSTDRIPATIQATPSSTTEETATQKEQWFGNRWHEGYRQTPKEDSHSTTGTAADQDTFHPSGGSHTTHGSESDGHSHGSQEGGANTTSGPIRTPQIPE
From the text: Figure 2 Characterization of peptide binding to recombinant CD44v6 (A) Schematic of recombinant CD44v6-Fc and CD44-Fc expression construct. The number of constant exons (1-5 and 15-17) are marked. (B) SDS-PAGE analysis and immunoblotting of purified CD44v6-Fc and CD44-Fc (M, BioRad precision plus all blue prestained protein standard; lane 1, CD44v6-Fc; lane 2, CD44-Fc). For SDS-PAGE analysis, the purified proteins were detected by coomassie blue staining. For immunoblotting, the mouse anti-human Fc Ab or mouse anti-human v6 region specific mAb VFF18 was used as the primary Ab and HRP conjugated goat anti-mouse Ab was used as the secondary Ab. (C) ELISA analysis of the dose dependent recombinant CD44v6-Fc binding ability of four biotinylated peptides. […] The maximal ELISA absorbance value of PFT binding to CD44v6-Fc was used to normalize the binding signal of individual peptides. The specific binding curve was generated using GraphPad Prism 6.0 software and absolute Kd values were calculated using nonlinear regression. (D) The specificity of PFT binding to recombinant CD44v6-Fc. Different concentrations of PFT and its two scrambled peptide versions were incubated with immobilized CD44v6-Fc or CD44-Fc, respectively for ELISA analyses. The maximal ELISA absorbance value of PFT binding to CD44v6-Fc was used to normalize the binding signal of individual peptides. The specific binding curve was generated using GraphPad Prism 6.0 software.
An ELISA was performed to analyze the binding of synthesized biotinylated peptides to recombinant CD44-Fc or CD44v6-Fc. Briefly, 100 μl of recombinant protein at 1 μg/ml in 0.05 M carbonate/bicarbonate coating buffer (pH 9.6) was added to each well of a 96-well microtiter plate and coated for 24 h at 4°C. The plates were blocked with 1% BSA in PBST buffer (0.05% Tween 20 in PBS) and then incubated with 100 μl of peptides or antibodies at various concentrations in 0.5% BSA in PBST for 2 h at RT. After washing extensively for five times with PBST buffer, the plates were incubated with 100 μl of HRP-conjugated streptavidin (1:2000 diluted with 0.5% BSA in PBST buffer) for 1 h at RT. After washing five times with PBST buffer, the Sigma fast O-phenylenediamine dihydrochloride tablets (Sigma-Aldrich, St. Louis, MO) were used as substrates and the absorbance was measured at 490 nm using an endpoint assay on a μQuant Universal Microplate Spectrophotometer (Bio-Tek Instruments, Winooski, VT).
For binding analysis, the ECD of CD44 and CD44v6 protein were expressed as Fc-tagged proteins (Figure 2A). Exon numbering was performed according to the study of Screaton et al. The ECD of CD44 was engineered as an N-terminal constant sequence (exons 1–5) followed by a nonvariable stretch at the C-terminus (exons 15–17) (Figure 2A). […]

[1] = tested on: v6 region peptide (KEQWFGNRWHEGYR) of CD44v6; assay: Peptide-Peptide ELISA, v6 region peptide; assay type: binding, human; conditions: biotinylated peptides 10 μM, v6 and control peptides 2 μM on streptavidin plate; 25 mM Tris pH 7.2, 150 mM NaCl, 0.1% BSA, 0.05% Tween-20; 2 h at RT; 490 nm; Figure 1D
Met signaling = conditions: v6 peptide derivative; ref [36]; cited from earlier work
CD44v6 = assay: Immunohistofluorescence, human PCa tissue microarrays; conditions: T3N2M1 (grade III) TMA sample; 50 μM peptide; Figure 10C
VFF18 = conditions: amino acids 19-29 of the v6 domain; ref [55]; cited from earlier work
From the text: Affinity selection of phage displaying peptides typically involves passing the phage library over desired target molecules, such as protein biomarkers of cancer. In this study, we aimed to obtain peptides specific to the v6 region of human CD44v6, a putative aggressive cancer and/or CSC biomarker. However, the v6 region contains only 45 amino acids while the CD44v6-ECD consists of 290 amino acids. […] VFF18 is a murine mAb gene ...

[2] = molecular target: CD44v6-Fc ECD (exons 1-5, v6 exon 10, exons 15-17) (Homo sapiens), P16070; assay: ELISA; conditions: N-terminal biotin on peptide, Fc fusion of CD44v6
CD44v6-Fc ECD (exons 1-5, v6 exon 10, exons 15-17) (Homo sapiens), P16070, sequence (P16070 whole entry, looked up, change not shown, the tested form may be a part): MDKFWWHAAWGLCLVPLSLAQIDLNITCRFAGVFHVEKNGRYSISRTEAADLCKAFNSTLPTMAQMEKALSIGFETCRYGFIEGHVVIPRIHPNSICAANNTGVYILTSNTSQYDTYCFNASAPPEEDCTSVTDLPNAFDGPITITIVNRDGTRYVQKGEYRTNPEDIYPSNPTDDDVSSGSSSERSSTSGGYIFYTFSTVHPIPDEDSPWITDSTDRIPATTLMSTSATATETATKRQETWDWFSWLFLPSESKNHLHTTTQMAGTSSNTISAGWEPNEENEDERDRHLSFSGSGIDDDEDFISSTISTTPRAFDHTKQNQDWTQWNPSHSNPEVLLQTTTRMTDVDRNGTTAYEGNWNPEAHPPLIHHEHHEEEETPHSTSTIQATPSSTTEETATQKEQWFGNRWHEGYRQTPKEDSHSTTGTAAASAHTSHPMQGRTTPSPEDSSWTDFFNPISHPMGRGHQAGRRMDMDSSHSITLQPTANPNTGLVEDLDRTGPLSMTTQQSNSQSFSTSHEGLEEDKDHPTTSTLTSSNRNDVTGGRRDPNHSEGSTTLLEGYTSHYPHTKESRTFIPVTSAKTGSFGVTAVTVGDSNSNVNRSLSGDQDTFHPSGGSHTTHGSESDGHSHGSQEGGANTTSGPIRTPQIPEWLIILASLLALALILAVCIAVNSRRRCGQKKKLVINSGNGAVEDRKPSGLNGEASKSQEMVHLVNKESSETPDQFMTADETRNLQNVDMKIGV

Molecule: COc1cccc2c1C(=O)c1c(O)c3c(c(O)c1C2=O)C[C@@](O)(C(=O)CO)C[C@@H]3O[C@H]1C[C@H](N)[C@H](O)[C@H](C)O1 [DOX, doxorubicin]
- IC50 (PC3M cells): 51.6 nM
- cell death among SORE6-GFP^- cells on DOX treatment (in words) (SORE6-GFP^- cells): extensive cell death was observed among SORE6-GFP^- cells

Molecule: CC(C)[C@H](NC(=O)[C@H](Cc1ccccc1)NC(=O)[C@@H]1CCCN1C(=O)[C@@H](NC(=O)[C@H](CO)NC(=O)[C@@H](NC(=O)[C@@H](NC(=O)[C@H](Cc1ccccc1)NC(=O)[C@@H]1CCCN1C(=O)CNC(=O)[C@H](CO)NC(=O)CNC(=O)CCCC[C@@H]1SC[C@@H]2NC(=O)N[C@@H]21)[C@@H](C)O)C(C)C)C(C)C)C(=O)N[C@@H](Cc1c[nH]c2ccccc12)C(=O)N[C@@H](CC(N)=O)C(=O)N[C@@H](Cc1ccccc1)C(=O)N[C@H](C(=O)N[C@@H](C)C(=O)N[C@@H](CC(=O)O)C(=O)O)[C@@H](C)O [PFT] (Biotin-GSGPFTVSVPFVWNFTAD-OH)
- Kd (recombinant CD44v6-Fc; read-out: apparent affinity (equilibrium dissociation constant, Kd) to recombinant CD44v6): 743 ± 153 nM

Molecule: CC(C)[C@H](NC(=O)[C@H](CO)NC(=O)[C@H](CO)NC(=O)[C@@H](NC(=O)[C@H](CCCNC(=N)N)NC(=O)[C@@H]1CCCN1C(=O)CNC(=O)[C@H](C)NC(=O)[C@H](Cc1c[nH]c2ccccc12)NC(=O)CNC(=O)[C@H](CO)NC(=O)CNC(=O)CCCC[C@@H]1SC[C@@H]2NC(=O)N[C@@H]21)C(C)C)C(=O)N[C@@H](Cc1ccc(O)cc1)C(=O)N[C@@H](Cc1ccc(O)cc1)C(=O)N[C@@H](C)C(=O)NCC(=O)N[C@@H](C)C(=O)N[C@@H](CCCNC(=N)N)C(=O)O [WAG] (Biotin-GSGWAGPRVSSVYYAGAR-OH)
- Kd (recombinant CD44v6-Fc; read-out: apparent affinity (Kd) to recombinant CD44v6): 8670 ± 1850 nM

Molecule: Biotin-GSG-SAYDRPL (Biotin-GSGSAYDRPL)
- binding of synthetic peptides to v6 region peptide compared to control peptide (in words) [1]: increased binding to v6 region peptide compared to control peptide

Molecule: Biotin-GSG-WSNKGYD
- binding of synthetic peptides to v6 region peptide compared to control peptide (in words) [1]: increased binding to v6 region peptide compared to control peptide

Molecule: KEQWFGNRWHEGYR [selection target]
- inhibition of Met signaling (in words) (Met signaling): inhibited Met signaling

Molecule: VSVWFVTANFPPFTD [scr2]
- binding to recombinant CD44v6-Fc (in words) (recombinant CD44v6-Fc): negligible binding to CD44v6-Fc

Molecule: VTPVFSFATPNFVDW [scr1]
- staining of PCa tissue by scrambled peptide (in words) (CD44v6): no staining
- binding to recombinant CD44v6-Fc (in words) (recombinant CD44v6-Fc): negligible binding to CD44v6-Fc

Molecule: WFGNRWHEGYR [peptide corresponding to amino acids 19-29 of the v6 domain]
- epitope for VFF18 binding (in words) (VFF18): minimum sequence required for high-affinity binding of VFF18

Molecule: Biotin-GSGWAGPRVSSVYYAGAR [WAG]
- Kd [2]: 8670 nM

Molecule: Biotin-GSGPFTVSVPFVWNFTAD [PFT]
- Kd [2]: 743 nM
